Read-outs that look alike come from different tables or passages of the source. One block for each molecule: values may come before it. Square brackets hold non-standard residues; d marks the D form. Ends that are not written are not given here. Peptide text beside a SMILES is read from it. Aad = N[C@@H](CCCC(=O)O)C(=O)O; Sec = N[C@@H](C[SeH])C(=O)O; Orn = NCCC[C@H](N)C(=O)O
Columns and labels:
human JMJD7 [1] = target: T1, human JMJD7 (Homo sapiens, UniProt P0C870); assay: LC-MS assay of JMJD7-catalyzed hydroxylation/oxidation of DRG1 peptides; type: biochemical; settings: 10 μM FAS, 100 μM LAA
T1 construct: human JMJD7 (residues 1–316) with an N‐terminal His6‐tag; His6 (N); made in house; host or cells: Escherichia coli Rosetta (DE3)
T1 sequence (P0C870 whole entry, the tested form may be a part): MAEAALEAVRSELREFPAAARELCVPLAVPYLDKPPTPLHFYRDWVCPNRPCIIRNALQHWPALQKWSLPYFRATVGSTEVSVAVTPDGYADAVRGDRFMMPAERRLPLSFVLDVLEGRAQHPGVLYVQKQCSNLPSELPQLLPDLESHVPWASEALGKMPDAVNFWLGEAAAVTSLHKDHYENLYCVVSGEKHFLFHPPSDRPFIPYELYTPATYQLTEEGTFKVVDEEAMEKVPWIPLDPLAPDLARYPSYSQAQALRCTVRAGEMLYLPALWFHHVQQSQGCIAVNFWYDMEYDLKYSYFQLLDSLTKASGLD
Procedure: Initial assays were carried out by incubation of purified recombinant (Markolovic et al., [2018]) human JMJD7 (2 μM) in the presence of a DRG1 derived peptide (10 μM), 2OG (10 μM), ferrous ammonium sulfate (FAS, 10 μM), and L‐ascorbate (LAA, 100 μM) in Tris buffer at pH 7.5 for 2 h at room temperature. Potential conversion to a hydroxylated product (+16 Da mass shift) was monitored by liquid‐chromatography‐mass‐spectrometry (LC–MS). […] The assay results also implied that DRG1‐Orn was hydroxylated, but to a lower extent (~21%) than DRG1‐Lys. […] The alcohol‐containing peptide hydroxynorleucine (DRG1‐HNle), was hydroxylated at relatively low levels (~24%), implying that H‐bonding interactions and positive charge of the N^ɛ‐amino group of lysine are important for efficient binding and catalysis, but that a neutral alcohol can still be accommodated at the active site (Figure 3f) (Markolovic et al., [2018]).
All reagents were procured from Sigma Aldrich. 2‐Oxoglutarate (2OG, 10 mM) and L‐ascorbic acid (LAA, 50 mM) solutions were prepared freshly by dissolving the solids in deionized water. Ferrous ammonium sulfate (FAS) solution was prepared freshly by dissolving FAS at 400 mM in 20 mM HCl with subsequent dilution to 1 mM using deionized water. JMJD7 assays using DRG1 (16–40) based peptides were performed with the following conditions: (i) 2 or 5 μM JMJD7, 10 μM DRG1 peptide, 100 μM LAA, 10 μM FAS, 10 μM 2OG in mM 50 Tris‐buffer (pH 7.5), (ii) 2 μM JMJD7, 10 μM DRG1 peptide, 100 μM LAA, 10 μM FAS, 20 μM 2OG in mM 50 Tris‐buffer (pH 7.5). Reactions were initiated by addition of enzyme to the cosubstrate/substrate solution in a final reaction volume of 50 μL with 2 h incubation at room temperature. A positive control reaction containing enzyme and a validated peptide substrate was included in all screening studies. After 2 h, reactions were stopped by addition of 5 μL of 10% (v/v) LC–MS grade formic acid (Fisher Scientific) and transferred to a 96 well plate (Agilent). Intact mass peptide analysis was performed by LC–MS using an Agilent 1290 infinity II LC system equipped with an Agilent 1290 multisampler and an Agilent 1290 high speed pump and connected to an Agilent 6550 accurate mass iFunnel quadrupole time of flight (Q‐TOF) mass spectrometer. The reaction mixture (4 μL) was injected and loaded onto a ZORBAX RRHD Eclipse Plus C18 column (Agilent). Solvent A consisted of LC–MS grade water containing 0.1% (v/v) formic acid and solvent B consisted of MeCN containing 0.1% (v/v) formic acid. Peptides were separated using a step wise gradient (0 min – 95% solvent A, 1.0 min – 80% solvent A, 3.0 min – 45% solvent A, 4.0 min – 45% solvent A, 5.0 min – 0% solvent A, 6.0 min – 0% solvent A, 7.0 min – 95% solvent A). This was followed by a 3 min elution with 95% solvent A to re‐equilibrate the column. Flow rates were 0.2 mL/min. The mass spectrometer was operated in the positive ion mode with a drying gas temperature (280°C), drying gas flow rate (13 L min^−1), nebulizer pressure (40 psig), sheath gas temperature (350°C), sheath gas flow rate (12 L min^−1), capillary voltage (4000 V), nozzle voltage (1000 V). Data were analyzed using Agilent MassHunter Qualitative Analysis (Version B.07.00) software.

human JMJD7 [2] = target: T1, human JMJD7; assay: Q-TOF-MS protein-observed analysis of intact JMJD7 (adduct formation); type: binding; settings: 2 μM JMJD7, 20 μM peptide; for JMJD7-peptide adduct formation: Q-TOF-MS of intact protein
Procedure: To investigate inhibition by the DRG1‐Cys/Sec peptides, we performed protein‐observed analysis of JMJD7 (2 μM) in the presence of the DRG1‐Cys/Sec peptides (20 μM) under likely non‐denaturing conditions (Figure 7g). The observed masses correspond to the JMJD7‐DRG1‐Cys (40.79 kDa) and JMJD7‐DRG1‐Sec (40.84 kDa) adducts, implying that DRG1‐Cys/Sec might inhibit JMJD7 via formation of S‐S/Se‐S bonds, plausibly with Cys132, though further work is required to validate this (Figure 7g).

[3] = target: human Jumonji-C (JmjC) domain-containing protein 7 (JMJD7), residues 1-316 (human) (UniProt P0C870)
Sequence of human Jumonji-C (JmjC) domain-containing protein 7 (JMJD7), residues 1-316 (human) (P0C870 whole entry, the tested form may be a part): as above

[4] = target: human Jumonji-C (JmjC) domain-containing protein 7 (JMJD7), residues 1-316 (human) (UniProt P0C870); remark: listed apart in the source
[5] = target: human Jumonji-C (JmjC) domain-containing protein 7 (JMJD7), residues 1-316 (human) (UniProt P0C870); remark: listed apart in the source
human JMJD7 [6] = target: T1, human JMJD7; assay: MALDI-TOF MS JMJD7 inhibition assay; type: biochemical
Procedure: Due to signal overlaps between some DRG1 peptides and the reference DRG1‐Lys substrate, we synthesized a shorter reference substrate peptide (DRG1‐Lys, residues 17–40) for use in the MS‐based inhibition assays. Synthetic DRG1 peptides (residues 16–40, 10 or 50 μM) were preincubated with JMJD7 (200 nM) for 15 min, after which time the DRG1‐Lys substrate (residues 17–40, 5 μM), 2OG (10 μM), FAS […] and LAA […] were added, and the reaction were carried out for 25 min at room temperature. Most of the DRG1 peptides were not active as JMJD7 inhibitors at 10 μM (residual activity of JMJD7 >50%) (Figure S41a,b), with exceptions including the DRG1‐Orn, DRG1‐hGln and DRG1‐4pyrA peptides.
Single point screening assays were as follows; initially, JMJD7 (200 nM) and substituted DRG1 peptide (10 or 50 μM) were incubated for 15 min, followed by the addition of a mixture of the DRG1‐Lys substrate (5 μM), 2OG (10 μM), FAS (10 μM) and LAA (100 μM) in a final volume of 50 μL in Tris‐buffer (pH 7.5) and incubated for additional 25 min at room temperature. […] Reactions were quenched by the addition of 10% (v/v) formic acid and mixed 1:1 with CHCCA matrix (1:1 v/v MeCN:H2O) then analyzed by MALDI‐TIMS‐TOF MS. JMJD7 activity was determined by calculating the integral of hydroxylated peptide and normalized to a control reaction in absence of potential inhibitory peptides. Every experiment was performed in duplicate (n = 2), error bars are reported as SE.

human JMJD7 [7] = target: T1, human JMJD7; assay: MALDI-TOF MS JMJD7 inhibition assay; type: biochemical; remark: listed apart in the source
[8] = 200 nM JMJD7 preincubated 15 min with peptide (1 nM–150 μM), 5 μM DRG1-Lys (17–40) substrate, 10 μM 2OG, 25 min, room temperature, Tris pH 7.5, MALDI MS, duplicate (n = 2), ± SE, read-out: IC50 (JMJD7 inhibition, with 15 min preincubation)
[9] = same assay conditions but without preincubation, read-out: IC50 (JMJD7 inhibition, without preincubation)

IC50 of inhibition of JMJD7-catalysed hydroxylation of the DRG1-Lys substrate, MALDI-TOF MS, 15 min preincubation [3]: 1.46 µM
IC50 of inhibition of JMJD7-catalysed hydroxylation of the DRG1-Lys substrate, MALDI-TOF MS, without preincubation [3]: 2.8 µM
Molecule: DRG1-Sec peptide (DRG1 residues 16-40, selenocysteine in place of Lys22)

IC50 of inhibition of JMJD7-catalysed (200 nM) hydroxylation of the DRG1-Lys substrate (residues 17-40, 5 μM), MALDI-TOF MS, 15 min preincubation [5]: 7.68 µM
Molecule: DRG1-hGln peptide (DRG1 residues 16-40, hGln in place of Lys22)

IC50 of inhibition of JMJD7-catalysed hydroxylation of the DRG1-Lys substrate, MALDI-TOF MS, 15 min preincubation [3]: 1.25 µM
IC50 of inhibition of JMJD7-catalysed hydroxylation of the DRG1-Lys substrate, MALDI-TOF MS, without preincubation [3]: 16 µM
Molecule: DRG1-Cys peptide (DRG1 residues 16-40, Cys in place of Lys22)

inhibition of JMJD7 by the shorter peptide fragment (human JMJD7 [6]; standard conditions): No inhibition
Molecule: DRG1‐Cys (residues 19–25): shorter peptide fragment DRG1-Cys (residues 19–25) (QKNCATA-NH2)

IC50 (human JMJD7 [7]; [8]): 1.25 µM
IC50 (human JMJD7 [7]; [9]): 16 µM
single point inhibition of JMJD7 under reducing conditions (human JMJD7 [6]; 10 and 50 μM peptide, DTT or TCEP (1 mM) as reductant in the reaction buffer): lack inhibitory activity
JMJD7-peptide cross-linking in the presence of DTT (human JMJD7 [2]; DTT in the buffer, Q-TOF-MS): no cross‐linking is observed
JMJD7-peptide adduct formation (human JMJD7 [2]): observed in lower extent at 1 min
Molecule: ARTQKNCATAHHLGLLKARLAKLRR-NH2 [DRG1‐Cys]

IC50 (human JMJD7 [7]; [8]): 7.68 µM
Molecule: CC(C)C[C@H](NC(=O)CNC(=O)[C@H](CC(C)C)NC(=O)[C@H](Cc1c[nH]cn1)NC(=O)[C@H](Cc1c[nH]cn1)NC(=O)[C@H](C)NC(=O)[C@@H](NC(=O)[C@H](C)NC(=O)[C@H](CCCC(N)=O)NC(=O)[C@H](CC(N)=O)NC(=O)[C@H](CCCCN)NC(=O)[C@H](CCC(N)=O)NC(=O)[C@@H](NC(=O)[C@H](CCCNC(=N)N)NC(=O)[C@H](C)N)[C@@H](C)O)[C@@H](C)O)C(=O)N[C@@H](CC(C)C)C(=O)N[C@@H](CCCCN)C(=O)N[C@@H](C)C(=O)N[C@@H](CCCNC(=N)N)C(=O)N[C@@H](CC(C)C)C(=O)N[C@@H](C)C(=O)N[C@@H](CCCCN)C(=O)N[C@@H](CC(C)C)C(=O)N[C@@H](CCCNC(=N)N)C(=O)N[C@@H](CCCNC(=N)N)C(N)=O [DRG1‐hGln] (H-ARTQKN[Aad](NH2)ATAHHLGLLKARLAKLRR-NH2)

Km of JMJD7-catalysed hydroxylation, steady-state kinetics by SPE-MS (0.1-5.0 μM peptide, 100 nM JMJD7) [4]: 1.4 µM
Molecule: ARTQKNKATAHHLGLLKARLAKLRR-NH2 [DRG1-Lys substrate peptide (DRG1 residues 16-40)]

More lines, now with the values behind:

Molecule: ARTQKNSerATAHHLGLLKARLAKLRR [DRG1‐Ser, 25-mer DRG1 (16–40) peptide with Ser at position 22]
degree of oxidation (+16 Da) of cysteine/methionine analog peptides by JMJD7 (human JMJD7 [1]; 2 μM JMJD7, 10 μM peptide, 10 μM 2OG): did also not undergo oxidation
JMJD7-peptide adduct formation (human JMJD7 [2]): Adduct formation was not observed

Molecule: DRG1-LysE peptide (DRG1 residues 16-40, (E)-dehydrolysine in place of Lys22)
Km of JMJD7-catalysed hydroxylation, steady-state kinetics by SPE-MS (0.1-5.0 μM peptide, 100 nM JMJD7) [4]: 3.1 µM

Molecule: DRG1-4pyrA peptide (DRG1 residues 16-40, 4pyrA in place of Lys22)
IC50 of inhibition of JMJD7-catalysed (200 nM) hydroxylation of the DRG1-Lys substrate (residues 17-40, 5 μM), MALDI-TOF MS, 15 min preincubation [5]: 15.2 µM

Molecule: CC(C)C[C@H](NC(=O)CNC(=O)[C@H](CC(C)C)NC(=O)[C@H](Cc1c[nH]cn1)NC(=O)[C@H](Cc1c[nH]cn1)NC(=O)[C@H](C)NC(=O)[C@@H](NC(=O)[C@H](C)NC(=O)[C@H](CCCN)NC(=O)[C@H](CC(N)=O)NC(=O)[C@H](CCCCN)NC(=O)[C@H](CCC(N)=O)NC(=O)[C@@H](NC(=O)[C@H](CCCNC(=N)N)NC(=O)[C@H](C)N)[C@@H](C)O)[C@@H](C)O)C(=O)N[C@@H](CC(C)C)C(=O)N[C@@H](CCCCN)C(=O)N[C@@H](C)C(=O)N[C@@H](CCCNC(=N)N)C(=O)N[C@@H](CC(C)C)C(=O)N[C@@H](C)C(=O)N[C@@H](CCCCN)C(=O)N[C@@H](CC(C)C)C(=O)N[C@@H](CCCNC(=N)N)C(=O)N[C@@H](CCCNC(=N)N)C(N)=O [DRG1‐Orn] (H-ARTQKN[Orn]ATAHHLGLLKARLAKLRR-NH2)
IC50 (human JMJD7 [7]; [8]): 14 µM
extent of hydroxylation by JMJD7 at higher 2OG concentration (human JMJD7 [1]; 2 μM JMJD7, 10 μM peptide, 20 μM 2OG, pH 7.5, 2 h incubation): ~ 31%
extent of hydroxylation (+16 Da) by JMJD7 (human JMJD7 [1]; standard conditions: 2 μM JMJD7, 10 μM DRG1 peptide, 10 μM 2OG, Tris pH 7.5, 2 h, room temperature): ~ 21%
single point inhibition of JMJD7 at 50 μM peptide (human JMJD7 [6]; 50 μM DRG1 peptide, 200 nM JMJD7, 15 min preincubation, 5 μM DRG1-Lys substrate): clear inhibition

Molecule: CC(C)C[C@H](NC(=O)CNC(=O)[C@H](CC(C)C)NC(=O)[C@H](Cc1c[nH]cn1)NC(=O)[C@H](Cc1c[nH]cn1)NC(=O)[C@H](C)NC(=O)[C@@H](NC(=O)[C@H](C)NC(=O)[C@H](C[SeH])NC(=O)[C@H](CC(N)=O)NC(=O)[C@H](CCCCN)NC(=O)[C@H](CCC(N)=O)NC(=O)[C@@H](NC(=O)[C@H](CCCNC(=N)N)NC(=O)[C@H](C)N)[C@@H](C)O)[C@@H](C)O)C(=O)N[C@@H](CC(C)C)C(=O)N[C@@H](CCCCN)C(=O)N[C@@H](C)C(=O)N[C@@H](CCCNC(=N)N)C(=O)N[C@@H](CC(C)C)C(=O)N[C@@H](C)C(=O)N[C@@H](CCCCN)C(=O)N[C@@H](CC(C)C)C(=O)N[C@@H](CCCNC(=N)N)C(=O)N[C@@H](CCCNC(=N)N)C(N)=O [DRG1‐Sec] (H-ARTQKN[Sec]ATAHHLGLLKARLAKLRR-NH2)
IC50 (human JMJD7 [7]; [8]): 1.46 µM
IC50 (human JMJD7 [7]; [9]): 2.8 µM

Molecule: DRG1-Orn peptide (DRG1 residues 16-40, Orn in place of Lys22)
IC50 of inhibition of JMJD7-catalysed (200 nM) hydroxylation of the DRG1-Lys substrate (residues 17-40, 5 μM), MALDI-TOF MS, 15 min preincubation [5]: 14 µM
